Experimental data reported in patent US20140179681A1, “METHODS AND COMPOSITIONS OF TARGETED DRUG DEVELOPMENT” (priority 2010, published 2014).
Structures can show the parent of a compound that is named as a salt.

Target: T1, EGFR (Homo sapiens, UniProt P00533)
T1 construct: host or cells: A431
Experiment: EGFR in-cell Western (ICW) screening protocol (EGFR inhibition assay)
Format: cell-based
Set-up: ICW 1 / ICW 2 / ICW Avg: unit not given here
Settings: for ICW Avg / ICW 1 / ICW 2: ICW assay; for ICW Avg: average of runs 1 and 2; for ICW 1: run 1; for ICW 2: run 2; for ICW Screen: Table 11, % Inhibition of EGF dependent EGFR phosphorylation in A431 cells, compound 125 μM in assay
Method: The following example describes general EGFR in-cell Western (ICW) screening protocol. Methods are according to Chen et al. (2005) Analytical Biochemistry 338, 136-142 (incorporated herein by reference), except as otherwise noted.
Cell Plates: A431 cells (ATCC # CRL-1555) were grown in Dulbecco's Modified Eagle Medium (DMEM; ATCC #30-2002) supplemented with 10% fetal bovine serum, 105 units/ml pen/strep (Invitrogen #15140155) and 2.1 mM L-glutamine (ATCC #30-2214). Cells were seeded into 96 well tissue culture plates (BD Falcon #353948) at a density of 30,000 cells per well and incubated at 37° C. with 5% CO2 overnight. Two cell plates were prepared for each compound plate.
Serum Starvation: The cells were serum starved prior to compound addition. The media was removed by aspiration and the cells washed with PBS (200 μl/well; Invitrogen #20012-027). The PBS was removed by aspiration and replaced with 200 μl of DMEM (ATCC #30-2002) supplemented with 105 units/ml pen/strep (Invitrogen #15140155) and 2.1 mM 1-glutamine (ATCC #30-2214). The cell plates were incubated at 37° C./5% CO2 for 2 hours.
Compound Plate Preparation: The test compounds were solvated in 100% DMSO (Sigma #472301-2L) at a concentration of 25 mM. Compounds found not to be completely soluble in 100% DMSO at 25 mM were diluted to 10 mM with 100% DMSO and TFA (Fluka #91699) added to a final concentration of 0.2%. 40 μl of test compound was added to the appropriate well of a 96 well plate (Falcon #351190). As controls, 6 μM EGFR kinase inhibitor PD168393 (EMD/Calbiochem #513033) in 100% DMSO and DMSO alone were added to various wells. Prepared compound plates were stored at RT prior to use and at 4° C. long term.
Compound Dilution Plate Preparation: 250 μl of DMEM supplemented with 1 mg/ml BSA (Sigma A3059-10G) was added to the appropriate wells of a 96 well plate to prepare the compound dilution plates. Using a multichannel pipettor, 1.25 μl of compound from the compound plate was transferred into the compound dilution plate.
Compound Addition: The starve media was removed from the cell plates by aspiration. Using a multichannel pipettor, the compound dilution plates were mixed by pipetting up and down three times. 50 μl of mixed, diluted compound was added to each of two rows/columns on each of two cell plates. The cell plates with compound were incubated at 37° C./5% CO2 for 4 hours.
EGF Addition: 20 ng/ml EGF (Upstate #01-107) was prepared in DMEM supplemented with 1 mg/ml BSA. 50 μl of 20 or 0 ng/ml EGF was added to the appropriate wells without the removal of compound. The compound and EGF were mixed by pipetting up and down three times. The plates were incubated at 37° C./5% CO2 for 10 min. In some screening assays the final concentration of EGF used for simulation was 6.6, or 12.5 ng/ml rather than 10 ng/ml.
Fixation and Triton Washing: The EGF+compound was removed by aspiration and 150 μl of freshly prepared Fixation Solution (1×PBS, Sigma P3813-10PK, and 4% Formaldehyde, Pierce #28908) was immediately added. The plates were incubated at RT for 20 min without shaking. The Fixation Solution was removed by aspiration and the plates washed four times with 200 μl each of Triton Wash Solution (1×PBS, Sigma P3813-10PK, and 0.1% Triton X-100, T8787-50ML) for 5 min with gentle shaking.
Blocking and Probing: Following the last Triton Wash, the plates were blocked for 1.5 h at RT with shaking using 150 μl of Odyssey Blocking Buffer (LI-COR #927-40000). The block was removed by aspiration and 50 μl of diluted primary Ab mix was added. The plates were incubated at 4° C. overnight with gentle shaking. The plates were washed five times with 200 μl of PBST (1×PBS, Sigma P3813-10PK, and 0.1% Tween-20, Sigma P9416-50ML) for 5 min each with shaking 50 μl of diluted secondary Ab mix was added and the plates incubated at RT for 1 h with shaking. The plates were washed 5× with 200 μl of PBST for 5 min each with shaking. […]

T1 sequence (P00533 25-1210): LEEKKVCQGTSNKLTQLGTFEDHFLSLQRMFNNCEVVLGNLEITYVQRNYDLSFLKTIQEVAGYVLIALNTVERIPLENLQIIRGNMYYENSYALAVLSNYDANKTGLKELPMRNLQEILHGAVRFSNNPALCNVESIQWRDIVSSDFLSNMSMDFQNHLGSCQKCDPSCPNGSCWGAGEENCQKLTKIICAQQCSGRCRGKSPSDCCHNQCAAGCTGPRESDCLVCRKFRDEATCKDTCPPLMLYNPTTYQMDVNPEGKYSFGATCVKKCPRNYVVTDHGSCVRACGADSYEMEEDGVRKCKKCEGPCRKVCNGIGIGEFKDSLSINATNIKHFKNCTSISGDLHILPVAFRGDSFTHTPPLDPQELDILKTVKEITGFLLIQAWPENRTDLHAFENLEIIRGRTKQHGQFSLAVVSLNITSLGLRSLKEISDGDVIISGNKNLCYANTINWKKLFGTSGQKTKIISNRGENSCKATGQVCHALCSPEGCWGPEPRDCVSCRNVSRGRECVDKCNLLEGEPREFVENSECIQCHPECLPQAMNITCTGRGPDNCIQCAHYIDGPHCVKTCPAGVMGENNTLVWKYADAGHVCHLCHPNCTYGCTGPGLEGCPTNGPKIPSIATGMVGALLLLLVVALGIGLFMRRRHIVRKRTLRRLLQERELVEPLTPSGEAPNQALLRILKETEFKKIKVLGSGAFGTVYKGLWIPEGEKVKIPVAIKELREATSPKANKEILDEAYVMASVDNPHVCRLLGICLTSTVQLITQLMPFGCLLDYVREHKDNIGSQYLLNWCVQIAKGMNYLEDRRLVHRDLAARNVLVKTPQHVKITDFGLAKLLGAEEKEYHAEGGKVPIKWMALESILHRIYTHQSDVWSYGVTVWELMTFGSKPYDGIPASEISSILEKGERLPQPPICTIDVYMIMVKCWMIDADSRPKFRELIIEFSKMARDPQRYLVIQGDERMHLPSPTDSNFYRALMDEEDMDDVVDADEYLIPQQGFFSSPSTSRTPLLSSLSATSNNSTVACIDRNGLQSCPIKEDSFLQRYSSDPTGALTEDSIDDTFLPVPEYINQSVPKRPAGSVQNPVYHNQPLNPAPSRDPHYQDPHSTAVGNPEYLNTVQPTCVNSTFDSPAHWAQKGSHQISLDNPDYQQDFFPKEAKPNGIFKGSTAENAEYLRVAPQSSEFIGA

## Cc1cc(C)c2nc(Nc3nc4c(c(=O)[nH]3)CCCC4)nc(C)c2c1 [11483 + TFA]
  ICW Avg: 29.27
  ICW 1: 29.55
  ICW 2: 28.99

## Cc1cc(C)c2nc(Nc3nc(C)cc(=O)[nH]3)nc(C)c2c1 [11607 + TFA]
  ICW Avg: 42.71
  ICW 1: 43.69
  ICW 2: 41.73

## CC(=O)NC(=S)Nc1ccc(S(=O)(=O)N2CCc3ccccc32)cc1 [AD4-10103]
  ICW Screen (ICW Inhibition): 29.295

## Cc1cc2oc(=O)cc(CN3CCN(CCO)CC3)c2cc1C [AD4-10176]
  ICW Screen: 42.066

## CCc1ccc2oc(=O)cc(CN3CCN(CCO)CC3)c2c1 [AD4-10178]
  ICW Screen: 34.907

## COc1ccc(CC(=O)NC(=S)Nc2ccc(S(=O)(=O)NCCc3ccccc3)cc2)cc1 [AD4-10622]
  ICW Screen (ICW Inhibition): 25.347

## COc1cc(NS(=O)(=O)c2ccc(NC(=S)NC(=O)CCc3ccc(F)cc3)cc2)ncn1 [AD4-11384]
  ICW Screen (ICW Inhibition): 28.127

## CCc1nnc(NS(=O)(=O)c2ccc(NC(=S)NC(=O)C34CC5CC(CC(C5)C3)C4)cc2)s1 [AD4-11385]
  ICW Screen (ICW Inhibition): 28.892

## COc1ccc(CC(=O)NC(=S)Nc2ccc(S(=O)(=O)Nc3nc(C)cc(C)n3)cc2)cc1 [AD4-11395]
  ICW Screen (ICW Inhibition): 26.301

## Cc1ccc(OCC(=O)NC(=S)Nc2ccc(S(=O)(=O)N3CCOCC3)cc2)c(Br)c1 [AD4-11401]
  ICW Screen (ICW Inhibition): 25.557

## COc1cc(NS(=O)(=O)c2ccc(NC(=S)NC(=O)CCc3ccccc3)cc2)nc(OC)n1 [AD4-11405]
  ICW Screen (ICW Inhibition): 26.497

## COc1ccc(CC(=O)NC(=S)Nc2ccc(S(=O)(=O)N3CCOCC3)cc2)cc1 [AD4-11406]
  ICW Screen (ICW Inhibition): 26.851

## CCN(c1ccccc1)S(=O)(=O)c1ccc(NC(=S)NC(=O)C2CCCCC2)cc1 [AD4-11407]
  ICW Screen (ICW Inhibition): 27.585

## CN(Cc1ccccc1)S(=O)(=O)c1ccc(NC(=S)NC(=O)C2CCCCC2)cc1 [AD4-11410]
  ICW Screen (ICW Inhibition): 28.101

## CN1CCN(S(=O)(=O)c2ccc(NC(=S)NC(=O)c3ccccc3)cc2)CC1 [AD4-11420]
  ICW Screen (ICW Inhibition): 30.052

## CN1CCN(S(=O)(=O)c2ccc(NC(=S)NC(=O)CCc3ccccc3)cc2)CC1 [AD4-11424]
  ICW Screen (ICW Inhibition): 28.422

## COc1ccc(NS(=O)(=O)c2ccc(NC(=S)NC(=O)C3CCCC3)cc2)cc1 [AD4-11523]
  ICW Screen (ICW Inhibition): 26.098

## COc1cc(OC)nc(NS(=O)(=O)c2ccc(NC(=S)NC(=O)C3CCCC3)cc2)n1 [AD4-11536]
  ICW Screen (ICW Inhibition): 27.431

## CCc1nnc(NS(=O)(=O)c2ccc(NC(=S)NC(=O)/C=C/c3ccccc3)cc2)s1 [AD4-11861]
  ICW Screen (ICW Inhibition): 30.242

## Cc1cc(NS(=O)(=O)c2ccc(NC(=S)NC(=O)/C=C/c3cccs3)cc2)no1 [AD4-11863]
  ICW Screen (ICW Inhibition): 27.36

## CCc1nnc(NS(=O)(=O)c2ccc(NC(=S)NC(=O)/C=C/c3ccc(C)cc3)cc2)s1 [AD4-11879]
  ICW Screen (ICW Inhibition): 25.689

## COc1ccc(NS(=O)(=O)c2ccc(NC(=S)NC(=O)/C=C/c3ccccc3)cc2)nn1 [AD4-11888]
  ICW Screen (ICW Inhibition): 26.355

## CN1CCN(S(=O)(=O)c2ccc(NC(=S)NC(=O)C3CCCC3)cc2)CC1 [AD4-11973]
  ICW Screen (ICW Inhibition): 27.176

## CC(C)(C)NS(=O)(=O)c1ccc(NC(=S)NC(=O)C2CCC2)cc1 [AD4-11976]
  ICW Screen (ICW Inhibition): 26.918

## CN(C1CCCCC1)S(=O)(=O)c1ccc(NC(=S)NC(=O)C2CC2)cc1 [AD4-11986]
  ICW Screen (ICW Inhibition): 25.368

## COc1ccc(NS(=O)(=O)c2ccc(NC(=S)NC(=O)C(C)(C)C)cc2)cc1 [AD4-11994]
  ICW Screen (ICW Inhibition): 27.18

## CCOc1ccc(NS(=O)(=O)c2ccc(NC(=S)NC(=O)CC(C)C)cc2)cc1 [AD4-12014]
  ICW Screen (ICW Inhibition): 25.611

## CN(Cc1ccccc1)S(=O)(=O)c1ccc(NC(=S)NC(=O)C2CCCC2)cc1 [AD4-12039]
  ICW Screen (ICW Inhibition): 29.977

## CC(C)C(=O)NC(=S)Nc1ccc(S(=O)(=O)N(C)Cc2ccccc2)cc1 [AD4-12051]
  ICW Screen (ICW Inhibition): 28.852

## CC(=O)NS(=O)(=O)c1ccc(NC(=S)NC(=O)Cc2cccc3ccccc23)cc1 [AD4-12071]
  ICW Screen (ICW Inhibition): 27.713

## C=CCN(CC=C)S(=O)(=O)c1ccc(NC(=S)NC(=O)/C=C/c2ccccc2)cc1 [AD4-12092]
  ICW Screen (ICW Inhibition): 25.019

## Cc1ccc(NS(=O)(=O)c2ccc(NC(=S)NC(=O)CCc3ccccc3)cc2)cc1C [AD4-12103]
  ICW Screen (ICW Inhibition): 26.212

## COc1ccc(CC(=O)NC(=S)Nc2ccc(S(=O)(=O)NC(C)(C)C)cc2)cc1 [AD4-12133]
  ICW Screen (ICW Inhibition): 25.058

## O=C(CCc1ccccc1)NC(=S)Nc1ccc(S(=O)(=O)N2CCOCC2)cc1 [AD4-12147]
  ICW Screen (ICW Inhibition): 26.967

## C=CCN(CC=C)S(=O)(=O)c1ccc(NC(=S)NC(=O)/C=C/c2ccc(F)cc2)cc1 [AD4-12157]
  ICW Screen (ICW Inhibition): 26.73

## Cc1cc(C)nc(NS(=O)(=O)c2ccc(NC(=S)NC(=O)C3CCCC3)cc2)n1 [AD4-12163]
  ICW Screen (ICW Inhibition): 26.671

## O=C(NC(=S)Nc1ccc(S(=O)(=O)N2CCc3ccccc32)cc1)C1CCCC1 [AD4-12291]
  ICW Screen (ICW Inhibition): 25.191

## Cc1cc(-c2ccccc2)nc(Nc2nc(C)c3cc(C)c(C)cc3n2)n1 [compound 11309]
  ICW Avg: 37.00
  ICW 1: 33.31
  ICW 2: 40.70

## CCCc1c[nH]c(Nc2nc(C)c3ccccc3n2)nc1=O [compound 12662]
  ICW Avg: 25.21
  ICW 1: 21.64
  ICW 2: 28.79
